Source: patent publication EP3692978A1, “NOVEL METHOD” (DSM IP Assets B.V., priority 2019, dated 2020)
Like-named read-outs stand apart in the source and are kept apart here. Where a SMILES comes first, the peptide text is derived from it. [ ]: non-standard residue; d: D form. The star is where a group is joined. Bz = O=C(c1ccccc1)*; NPr2 = CCCN(CCC)*

System: human hair follicles
Format: cell-based
Settings: hair shaft elongation after 4 days versus vehicle (DMSO) control
Text: Microdissection of human hair follicles: Human scalp skin samples containing mainly anagen VI hair follicles were obtained from elective face-lift plastic surgery. Informed consent was obtained. Hair follicles were truncated below the dermis, while the remaining hair bulb was separated from the dermal/subcutaneous tissue and placed in appropriate culture medium. Before the experiment, each hair follicle underwent a stringent selection, that is operated by controlling the hair shaft elongation following 18 hrs of organ culture, as well as the general organ morphology. Only the hair follicles that grew at least 0.19 ± 0.02 mm/18 hrs were used for the experiment.
Treatment: The hair growth inhibition of Bz-Gly-His-D-Phe-Arg-D-Trp-N(Pr)2 *2MSA in the concentrations as indicated in table 2 was assessed versus control, i.e. versus a treatment with the vehicle (i.e. DMSO) alone. Evaluation of hair growth inhibition: pictures of the hair follicles in culture were taken at baseline and after 4 days and the hair shaft elongation was measured to determine the hair growth. Table 2: Results

CCCN(CCC)C(=O)[C@@H](Cc1c[nH]c2ccccc12)NC(=O)[C@H](CCCNC(=N)N)NC(=O)[C@@H](Cc1ccccc1)NC(=O)[C@H](Cc1c[nH]cn1)NC(=O)CNC(=O)c1ccccc1 [Bz-Gly-His-D-Phe-Arg-D-Trp-N(Pr)2 *2MSA] (Bz-GH[dF]R[dW]-NPr2)
% hair growth inhibition (1 nM, p = 0.067 (paired t-test)): 12%
% hair growth inhibition (100 nM, p = 0.019 (paired t-test)): 29%
